# Assay results as given in PubChem BioAssay AID1963440 (Molecular Pharmacology Branch, DTP, NCI, 2024).
# Test system: NCI-H1417 complex spheroids, growth % test/control
# Assay: Anticancer human tumor NCI-H1417 cell line growth inhibition [Asc];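 further: spheroids exposed to compounds for 7 days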;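 on viability, T/C: 100% = DMSO vehicle control wells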
# Details: for IC50: curve of first compound; for viability, T/C: stronger effect = lower value
# Procedure, shortened: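 Complex spheroids combining tumor cells with HUVEC endothelial cells and human MSCs, at 37 degrees C, 5% CO2; agents tested alone or combined, half-log dilutions from at or near clinical Cmax, or 10 microM if Cmax unknown.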
# [1] = second compound 0.01 µM, first compound 0.0316 µM
# [2] = second compound 0.01 µM, first compound 0.1 µM
# [3] = second compound 0.01 µM, first compound 0.316 µM
# [4] = second compound 0.01 µM, first compound 1 µM
# [5] = second compound 0.0316 µM, first compound 0.0316 µM
# [6] = second compound 0.0316 µM, first compound 0.1 µM
# [7] = second compound 0.0316 µM, first compound 0.316 µM
# [8] = second compound 0.0316 µM, first compound 1 µM
# [9] = second compound 0.1 µM, first compound 0.0316 µM
# [10] = second compound 0.1 µM, first compound 0.1 µM
# [11] = second compound 0.1 µM, first compound 0.316 µM
# [12] = second compound 0.1 µM, first compound 1 µM
# [13] = second compound 0.316 µM, first compound 0.0316 µM
# [14] = second compound 0.316 µM, first compound 0.1 µM
# [15] = second compound 0.316 µM, first compound 0.316 µM
# [16] = second compound 0.316 µM, first compound 1 µM
# [17] = second compound 1 µM, first compound 0.0316 µM
# [18] = second compound 1 µM, first compound 0.1 µM
# [19] = second compound 1 µM, first compound 0.316 µM
# [20] = second compound 1 µM, first compound 1 µM
# [21] = second compound 0.01 µM, first compound 0.00316 µM
# [22] = second compound 0.01 µM, first compound 0.01 µM
# [23] = second compound 0.0316 µM, first compound 0.00316 µM
# [24] = second compound 0.0316 µM, first compound 0.01 µM
# [25] = second compound 0.1 µM, first compound 0.00316 µM
# [26] = second compound 0.1 µM, first compound 0.01 µM
# [27] = second compound 0.316 µM, first compound 0.00316 µM
# [28] = second compound 0.316 µM, first compound 0.01 µM
# [29] = second compound 1 µM, first compound 0.00316 µM
# [30] = second compound 1 µM, first compound 0.01 µM
compound,measurement,setting,value
C=CC(=O)N1CCN(c2nc(=O)n(-c3c(C)ccnc3C(C)C)c3nc(-c4c(O)cccc4F)c(F)cc23)C(C)C1 (stereo not given) + CNC(C)C(=O)NC1CN(S(=O)(=O)c2cccc(S(=O)(=O)N3CCC4CCC(C(=O)NC(c5ccccc5)c5ccccc5)N4C(=O)C(NC(=O)C(C)NC)C3)c2)CCC2CCC(C(=O)NC(c3ccccc3)c3ccccc3)N2C1=O,IC50,second compound 0.01 µM,> 10000 nM
same,IC50,second compound 0.0316 µM,> 10000 nM
same,IC50,second compound 0.1 µM,> 10000 nM
same,IC50,second compound 0.316 µM,> 10000 nM
same,IC50,second compound 1 µM,> 10000 nM
same,"viability, T/C",[1],94%
same,"viability, T/C",[2],90%
same,"viability, T/C",[3],97.6%
same,"viability, T/C",[4],96.2%
same,"viability, T/C","second compound 0.01 µM, first compound 3.16 µM",102%
same,"viability, T/C","second compound 0.01 µM, first compound 10 µM",103%
same,"viability, T/C",[5],88.1%
same,"viability, T/C",[6],99.8%
same,"viability, T/C",[7],89.9%
same,"viability, T/C",[8],94.4%
same,"viability, T/C","second compound 0.0316 µM, first compound 3.16 µM",97.6%
same,"viability, T/C","second compound 0.0316 µM, first compound 10 µM",87.8%
same,"viability, T/C",[9],99.3%
same,"viability, T/C",[10],87.5%
same,"viability, T/C",[11],96.7%
same,"viability, T/C",[12],96.9%
same,"viability, T/C","second compound 0.1 µM, first compound 3.16 µM",92%
same,"viability, T/C","second compound 0.1 µM, first compound 10 µM",88.2%
same,"viability, T/C",[13],84.6%
same,"viability, T/C",[14],94.3%
same,"viability, T/C",[15],94.6%
same,"viability, T/C",[16],92.5%
same,"viability, T/C","second compound 0.316 µM, first compound 3.16 µM",93.8%
same,"viability, T/C","second compound 0.316 µM, first compound 10 µM",86.2%
same,"viability, T/C",[17],90.9%
same,"viability, T/C",[18],101%
same,"viability, T/C",[19],89.4%
same,"viability, T/C",[20],90.2%
same,"viability, T/C","second compound 1 µM, first compound 3.16 µM",104%
same,"viability, T/C","second compound 1 µM, first compound 10 µM",93.3%
COc1c(OCCCN2CCOCC2)ccc2c3n(c(=NC(=O)c4cnc(N)nc4)nc12)CCN3 + CNC(C)C(=O)NC1CN(S(=O)(=O)c2cccc(S(=O)(=O)N3CCC4CCC(C(=O)NC(c5ccccc5)c5ccccc5)N4C(=O)C(NC(=O)C(C)NC)C3)c2)CCC2CCC(C(=O)NC(c3ccccc3)c3ccccc3)N2C1=O,IC50,second compound 0.01 µM,> 1000 nM
same,IC50,second compound 0.0316 µM,> 1000 nM
same,IC50,second compound 0.1 µM,> 1000 nM
same,IC50,second compound 0.316 µM,> 1000 nM
same,IC50,second compound 1 µM,> 1000 nM
same,"viability, T/C",[21],95.5%
same,"viability, T/C",[22],109%
same,"viability, T/C",[1],100%
same,"viability, T/C",[2],82.3%
same,"viability, T/C",[3],79.4%
same,"viability, T/C",[4],58.4%
same,"viability, T/C",[23],96.1%
same,"viability, T/C",[24],93.8%
same,"viability, T/C",[5],91.1%
same,"viability, T/C",[6],78.5%
same,"viability, T/C",[7],77.2%
same,"viability, T/C",[8],57.8%
same,"viability, T/C",[25],95.4%
same,"viability, T/C",[26],96.5%
same,"viability, T/C",[9],96.6%
same,"viability, T/C",[10],81.1%
same,"viability, T/C",[11],71.4%
same,"viability, T/C",[12],53.8%
same,"viability, T/C",[27],99.4%
same,"viability, T/C",[28],97.7%
same,"viability, T/C",[13],87.2%
same,"viability, T/C",[14],74.1%
same,"viability, T/C",[15],69.2%
same,"viability, T/C",[16],56.4%
same,"viability, T/C",[29],97.7%
same,"viability, T/C",[30],99%
same,"viability, T/C",[17],90.1%
same,"viability, T/C",[18],83.4%
same,"viability, T/C",[19],77.2%
same,"viability, T/C",[20],56.4%
NC(=O)C(=Cn1cnc(-c2cc(C(F)(F)F)cc(C(F)(F)F)c2)n1)c1cncnc1 + CNC(C)C(=O)NC1CN(S(=O)(=O)c2cccc(S(=O)(=O)N3CCC4CCC(C(=O)NC(c5ccccc5)c5ccccc5)N4C(=O)C(NC(=O)C(C)NC)C3)c2)CCC2CCC(C(=O)NC(c3ccccc3)c3ccccc3)N2C1=O,IC50,second compound 0.01 µM,> 300 nM
same,IC50,second compound 0.0316 µM,299 nM
same,IC50,second compound 0.1 µM,275 nM
same,IC50,second compound 0.316 µM,265 nM
same,IC50,second compound 1 µM,249 nM
same,"viability, T/C","second compound 0.01 µM, first compound 0.000949 µM",103%
same,"viability, T/C","second compound 0.01 µM, first compound 0.003 µM",93.3%
same,"viability, T/C","second compound 0.01 µM, first compound 0.00949 µM",99.5%
same,"viability, T/C","second compound 0.01 µM, first compound 0.03 µM",103%
same,"viability, T/C","second compound 0.01 µM, first compound 0.0949 µM",89.6%
same,"viability, T/C","second compound 0.01 µM, first compound 0.3 µM",63.3%
same,"viability, T/C","second compound 0.0316 µM, first compound 0.000949 µM",111%
same,"viability, T/C","second compound 0.0316 µM, first compound 0.003 µM",94.2%
same,"viability, T/C","second compound 0.0316 µM, first compound 0.00949 µM",93%
same,"viability, T/C","second compound 0.0316 µM, first compound 0.03 µM",102%
same,"viability, T/C","second compound 0.0316 µM, first compound 0.0949 µM",83.5%
same,"viability, T/C","second compound 0.0316 µM, first compound 0.3 µM",49.6%
same,"viability, T/C","second compound 0.1 µM, first compound 0.000949 µM",89.3%
same,"viability, T/C","second compound 0.1 µM, first compound 0.003 µM",104%
same,"viability, T/C","second compound 0.1 µM, first compound 0.00949 µM",105%
same,"viability, T/C","second compound 0.1 µM, first compound 0.03 µM",90.2%
same,"viability, T/C","second compound 0.1 µM, first compound 0.0949 µM",76%
same,"viability, T/C","second compound 0.1 µM, first compound 0.3 µM",47.8%
same,"viability, T/C","second compound 0.316 µM, first compound 0.000949 µM",110%
same,"viability, T/C","second compound 0.316 µM, first compound 0.003 µM",98.7%
same,"viability, T/C","second compound 0.316 µM, first compound 0.00949 µM",112%
same,"viability, T/C","second compound 0.316 µM, first compound 0.03 µM",92.2%
same,"viability, T/C","second compound 0.316 µM, first compound 0.0949 µM",86.7%
same,"viability, T/C","second compound 0.316 µM, first compound 0.3 µM",45.1%
same,"viability, T/C","second compound 1 µM, first compound 0.000949 µM",91.5%
same,"viability, T/C","second compound 1 µM, first compound 0.003 µM",92.7%
same,"viability, T/C","second compound 1 µM, first compound 0.00949 µM",93%
same,"viability, T/C","second compound 1 µM, first compound 0.03 µM",94.8%
same,"viability, T/C","second compound 1 µM, first compound 0.0949 µM",86.9%
same,"viability, T/C","second compound 1 µM, first compound 0.3 µM",42.6%
NC1CCC(NC2CC2c2ccccc2)CC1 (stereo not given) + CNC(C)C(=O)NC1CN(S(=O)(=O)c2cccc(S(=O)(=O)N3CCC4CCC(C(=O)NC(c5ccccc5)c5ccccc5)N4C(=O)C(NC(=O)C(C)NC)C3)c2)CCC2CCC(C(=O)NC(c3ccccc3)c3ccccc3)N2C1=O,IC50,second compound 0.01 µM,> 100 nM
same,IC50,second compound 0.0316 µM,> 100 nM
same,IC50,second compound 0.1 µM,> 100 nM
same,IC50,second compound 0.316 µM,> 100 nM
same,IC50,second compound 1 µM,> 100 nM
same,"viability, T/C","second compound 0.01 µM, first compound 0.000316 µM",93.4%
same,"viability, T/C","second compound 0.01 µM, first compound 0.001 µM",92.8%
same,"viability, T/C",[21],88.7%
same,"viability, T/C",[22],89.4%
same,"viability, T/C",[1],84.2%
same,"viability, T/C",[2],91%
same,"viability, T/C","second compound 0.0316 µM, first compound 0.000316 µM",106%
same,"viability, T/C","second compound 0.0316 µM, first compound 0.001 µM",80.6%
same,"viability, T/C",[23],91.8%
same,"viability, T/C",[24],81.8%
same,"viability, T/C",[5],80.2%
same,"viability, T/C",[6],80.4%
same,"viability, T/C","second compound 0.1 µM, first compound 0.000316 µM",84.8%
same,"viability, T/C","second compound 0.1 µM, first compound 0.001 µM",91%
same,"viability, T/C",[25],85.5%
same,"viability, T/C",[26],81.4%
same,"viability, T/C",[9],82.9%
same,"viability, T/C",[10],89.7%
same,"viability, T/C","second compound 0.316 µM, first compound 0.000316 µM",87.6%
same,"viability, T/C","second compound 0.316 µM, first compound 0.001 µM",99.3%
same,"viability, T/C",[27],82%
same,"viability, T/C",[28],80.8%
same,"viability, T/C",[13],88.1%
same,"viability, T/C",[14],105%
same,"viability, T/C","second compound 1 µM, first compound 0.000316 µM",97.2%
same,"viability, T/C","second compound 1 µM, first compound 0.001 µM",88.5%
same,"viability, T/C",[29],89.7%
same,"viability, T/C",[30],88%
same,"viability, T/C",[17],84%
same,"viability, T/C",[18],90.2%
